Experimental data: ChEMBL document CHEMBL5316343, “Design, Synthesis, and Biological Evaluation of a Potent Dual EZH2-BRD4 Inhibitor for the Treatment of Some Solid Tumors” (J Med Chem, 2023)

Experiments:
[1] = target: Histone-lysine N-methyltransferase EZH2 (Homo sapiens, UniProt Q15910); test: Inhibition of EZH2 (unknown origin) by radiometric assay
[2] = target: Bromodomain-containing protein 4 (Homo sapiens, UniProt O60885); test: Inhibition of BRD4 (unknown origin) by HTRF analysis

Sequence of Histone-lysine N-methyltransferase EZH2 (Q15910 whole entry): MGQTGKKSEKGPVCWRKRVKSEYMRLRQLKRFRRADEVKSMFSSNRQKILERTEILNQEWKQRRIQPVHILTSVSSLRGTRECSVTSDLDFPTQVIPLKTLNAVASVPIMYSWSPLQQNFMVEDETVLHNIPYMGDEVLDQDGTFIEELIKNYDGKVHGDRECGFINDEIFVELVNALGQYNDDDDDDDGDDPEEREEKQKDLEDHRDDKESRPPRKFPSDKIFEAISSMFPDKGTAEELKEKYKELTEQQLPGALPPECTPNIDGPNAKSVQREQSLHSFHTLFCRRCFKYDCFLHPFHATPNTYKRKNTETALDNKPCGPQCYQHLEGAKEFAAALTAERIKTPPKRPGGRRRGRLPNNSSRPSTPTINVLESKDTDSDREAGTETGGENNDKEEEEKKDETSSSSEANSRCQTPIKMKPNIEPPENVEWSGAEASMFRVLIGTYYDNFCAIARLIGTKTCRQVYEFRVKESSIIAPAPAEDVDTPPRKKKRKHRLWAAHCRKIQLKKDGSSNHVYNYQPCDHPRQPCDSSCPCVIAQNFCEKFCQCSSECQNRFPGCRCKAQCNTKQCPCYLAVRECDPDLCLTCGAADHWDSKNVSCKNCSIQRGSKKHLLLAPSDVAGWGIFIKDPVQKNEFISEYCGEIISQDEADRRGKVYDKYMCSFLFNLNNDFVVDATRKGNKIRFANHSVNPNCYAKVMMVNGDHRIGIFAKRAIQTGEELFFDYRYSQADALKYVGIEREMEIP

Row | Compound | IC50 [1] | IC50 [2]
1 | Cc1[nH]c(=O)c(CNC(=O)c2cc(-c3cn(C)c(=O)c4[nH]ccc34)cc3c2cnn3C2CCCC2)c2c1CCCC2 | 0.046 µM | > 0.3 µM
2 | CCC(C)n1cc(C)c2c(C(=O)NCc3c(C)cc(C)[nH]c3=O)cc(-c3cn(C)c(=O)c4[nH]ccc34)cc21 (configuration not stated) | 0.0011 µM | > 0.3 µM
3 | Cc1[nH]c(=O)c(CNC(=O)c2cc(-c3cn(C)c(=O)c4[nH]ccc34)cc3c2ccn3C(C)C)c2c1CCCC2 | 0.0123 µM | > 0.3 µM
4 | CCC(CC)n1ccc2c(C(=O)NCc3c(C)cc(C)[nH]c3=O)cc(-c3cn(C)c(=O)c4[nH]ccc34)cc21 | 0.003 µM | 0.154 µM
5 | CCC(C)n1cc(C)c2c(C(=O)NCc3c4c(c(C)[nH]c3=O)CCCC4)cc(-c3cn(C)c(=O)c4[nH]ccc34)cc21 (configuration not stated) | 0.0079 µM | > 0.3 µM
6 | Cc1[nH]c(=O)c(CNC(=O)c2cc(-c3cn(C)c(=O)c4[nH]ccc34)cc3c2ccn3CC2CCCCC2)c2c1CCCC2 | 0.08 µM | > 0.3 µM
7 | Cc1[nH]c(=O)c(CNC(=O)c2cc(-c3cn(C)c(=O)c4[nH]ccc34)cc3c2ccn3C2CCCC2)c2c1CCCC2 | 0.0083 µM | > 0.3 µM
8 | Cc1cc(C)c(CNC(=O)c2cc(-c3cn(C)c(=O)c4[nH]ccc34)cc3c2cnn3C2CCCC2)c(=O)[nH]1 | 0.037 µM | > 0.3 µM
9 | Cc1cc(C)c(CNC(=O)c2cc(-c3cn(C)c(=O)c4[nH]ccc34)cc3[nH]ccc23)c(=O)[nH]1 | 0.083 µM | > 0.3 µM
10 | CCCC(C)n1ccc2c(C(=O)NCc3c4c(c(C)[nH]c3=O)CCCC4)cc(-c3cn(C)c(=O)c4[nH]ccc34)cc21 (configuration not stated) | 0.0093 µM | > 0.3 µM
11 | Cc1cc(C)c(CNC(=O)c2cc(-c3cn(C)c(=O)c4[nH]ccc34)cc3c2ccn3C(C)C)c(=O)[nH]1 | 0.0057 µM | 0.214 µM
